PubChem BioAssay (NCI)
Where “and” joins values, the source holds several entries; their conditions need not be identical. Identical values can stand only once.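 All cell lines were grown in 96-well plates and treated with compound for 48 hours. GI50 = concentration required for 50% inhibition of growth. TGI is the concentration that stops growth completely.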

Assays:
Assay in all cases: growth of human tumour cells (NCI), 48 h
786-0 renal = test system: 786-0 renal
CCRF-CEM leukemia = test system: CCRF-CEM leukemia
MALME-3M melanoma = test system: MALME-3M melanoma
MOLT-4 leukemia = test system: MOLT-4 leukemia
NCI-H460 lung = test system: NCI-H460 lung
OVCAR-5 ovarian = test system: OVCAR-5 ovarian
PC-3 prostate = test system: PC-3 prostate
SNB-75 CNS = test system: SNB-75 CNS
TK-10 renal = test system: TK-10 renal
NCI/ADR-RES ovarian = test system: NCI/ADR-RES ovarian

Fc1ccc(-c2nn3c(COc4ccc(Cl)cc4Cl)nnc3s2)cc1Oc1ccccc1
GI50 (786-0 renal): 14 µM
TGI (786-0 renal): 26.9 µM
GI50 (CCRF-CEM leukemia): 16.8 µM
TGI (CCRF-CEM leukemia): 39 µM
GI50 (MALME-3M melanoma): 17 µM
TGI (MALME-3M melanoma): 35.2 µM
GI50 (MOLT-4 leukemia): 7.08 µM
TGI (MOLT-4 leukemia): 27.8 µM
GI50 (NCI-H460 lung): 25.4 µM
TGI (NCI-H460 lung): > 100 µM
GI50 (OVCAR-5 ovarian): 11.1 µM
TGI (OVCAR-5 ovarian): 23.7 µM
GI50 (PC-3 prostate): 8.94 µM
TGI (PC-3 prostate): 21.4 µM
GI50 (SNB-75 CNS): 32.2 µM
TGI (SNB-75 CNS): 91.1 µM
GI50 (TK-10 renal): 12.2 µM
TGI (TK-10 renal): 25.2 µM

Cc1cc2c(cc1Cl)N1C(=O)NS(=O)(=O)N=C1NS2(=O)=O
GI50 (786-0 renal): > 100 µM
TGI (786-0 renal): > 100 µM
GI50 (CCRF-CEM leukemia): > 100 µM
TGI (CCRF-CEM leukemia): > 100 µM
GI50 (MALME-3M melanoma): > 100 µM
TGI (MALME-3M melanoma): > 100 µM
GI50 (MOLT-4 leukemia): > 100 µM
TGI (MOLT-4 leukemia): > 100 µM
GI50 (NCI-H460 lung): > 100 µM
TGI (NCI-H460 lung): > 100 µM
GI50 (NCI/ADR-RES ovarian): > 100 µM
TGI (NCI/ADR-RES ovarian): > 100 µM
GI50 (OVCAR-5 ovarian): > 100 µM
TGI (OVCAR-5 ovarian): > 100 µM
GI50 (PC-3 prostate): > 100 µM
TGI (PC-3 prostate): > 100 µM
GI50 (SNB-75 CNS): > 100 µM
TGI (SNB-75 CNS): > 100 µM
GI50 (TK-10 renal): > 100 µM
TGI (TK-10 renal): > 100 µM

O=C(/C=C/c1ccccc1)OCC1=C[C@@H](O)[C@@H]2C=CO[C@@H](OC3OC(CO)C(O)C(O)C3O)[C@H]12 (some centres not stated)
TGI (786-0 renal): > 100 µM
TGI (CCRF-CEM leukemia): > 100 µM
TGI (MALME-3M melanoma): > 100 µM
TGI (MOLT-4 leukemia): > 100 µM
TGI (NCI/ADR-RES ovarian): > 100 µM
TGI (OVCAR-5 ovarian): > 100 µM
TGI (PC-3 prostate): > 100 µM
TGI (SNB-75 CNS): > 100 µM
TGI (TK-10 renal): > 100 µM

COC(=O)NC(=O)c1cn(C2CCCCC2)c(=O)[nH]c1=O
TGI (786-0 renal): > 100 µM
TGI (CCRF-CEM leukemia): > 100 µM
TGI (MALME-3M melanoma): > 100 µM
TGI (MOLT-4 leukemia): > 100 µM
TGI (NCI-H460 lung): > 100 µM
TGI (OVCAR-5 ovarian): > 100 µM
TGI (SNB-75 CNS): > 100 µM
TGI (TK-10 renal): > 100 µM

COc1ccc(/C=C2/CN(CCC#N)C/C(=C\c3ccc(OC)cc3)C2=O)cc1
GI50 (786-0 renal): 1.99 µM
TGI (786-0 renal): 4.33 µM
GI50 (CCRF-CEM leukemia): 2.46 µM
TGI (CCRF-CEM leukemia): > 100 µM
GI50 (MALME-3M melanoma): 2.95 µM
TGI (MALME-3M melanoma): 8.58 µM
GI50 (MOLT-4 leukemia): 3.69 µM
TGI (MOLT-4 leukemia): > 100 µM
GI50 (NCI-H460 lung): 1.97 µM
TGI (NCI-H460 lung): 4.75 µM
GI50 (NCI/ADR-RES ovarian): 3.73 µM
TGI (NCI/ADR-RES ovarian): > 100 µM
GI50 (OVCAR-5 ovarian): 3.33 µM
TGI (OVCAR-5 ovarian): 24.9 µM
GI50 (PC-3 prostate): 2.67 µM
TGI (PC-3 prostate): > 100 µM
GI50 (TK-10 renal): 3.21 µM
TGI (TK-10 renal): 7.91 µM

CNCCNc1nc2ccccc2c2c(=O)c3cccc(C)c3sc12
GI50 (786-0 renal): 4.07 µM
TGI (786-0 renal): 11.5 µM
GI50 (CCRF-CEM leukemia): 1.28 µM
TGI (CCRF-CEM leukemia): 3.85 µM
GI50 (MALME-3M melanoma): 5.16 µM
TGI (MALME-3M melanoma): 11.7 µM
GI50 (MOLT-4 leukemia): 1.28 µM
TGI (MOLT-4 leukemia): 3.42 µM
GI50 (NCI-H460 lung): 0.917 µM
TGI (NCI-H460 lung): 2.05 µM
GI50 (NCI/ADR-RES ovarian): 1.76 µM
TGI (NCI/ADR-RES ovarian): 7.35 µM
GI50 (OVCAR-5 ovarian): 3.91 µM
TGI (OVCAR-5 ovarian): 10.6 µM
GI50 (PC-3 prostate): 1.55 µM
TGI (PC-3 prostate): 8.7 µM
GI50 (SNB-75 CNS): 1.14 µM
TGI (SNB-75 CNS): 8.49 µM

CC1(C)CC(N2CCN(C3CC(C)(C)NC(C)(C)C3)CC2)CC(C)(C)N1
TGI (786-0 renal): > 100 µM
TGI (CCRF-CEM leukemia): > 100 µM
TGI (MOLT-4 leukemia): > 100 µM
TGI (NCI-H460 lung): > 100 µM
TGI (OVCAR-5 ovarian): > 100 µM
TGI (SNB-75 CNS): > 100 µM
TGI (TK-10 renal): > 100 µM

Cc1cc(N)cc(C)c1-c1c(Br)cc(N)cc1Br
GI50 (786-0 renal): 5.53 µM
TGI (786-0 renal): 18.7 µM
GI50 (MALME-3M melanoma): 10.5 µM
TGI (MALME-3M melanoma): 54.3 µM
GI50 (NCI-H460 lung): 3.31 µM
TGI (NCI-H460 lung): 11.2 µM
GI50 (NCI/ADR-RES ovarian): 2.23 µM
TGI (NCI/ADR-RES ovarian): 5.57 µM
GI50 (OVCAR-5 ovarian): 4.84 µM
TGI (OVCAR-5 ovarian): > 100 µM
GI50 (PC-3 prostate): 4.17 µM
TGI (PC-3 prostate): 69.1 µM
GI50 (SNB-75 CNS): 2.29 µM
TGI (SNB-75 CNS): 16.2 µM
GI50 (TK-10 renal): 5.67 µM
TGI (TK-10 renal): 37.7 µM

O=C(CSc1ncc(-c2ccccc2)n1-c1ccccc1)Nc1ccc(-c2nc3ccccc3s2)cc1
GI50 (786-0 renal): 5.34 µM
TGI (786-0 renal): > 100 µM
GI50 (CCRF-CEM leukemia): > 100 µM
TGI (CCRF-CEM leukemia): > 100 µM
GI50 (NCI-H460 lung): 3.61 µM
TGI (NCI-H460 lung): > 100 µM
GI50 (OVCAR-5 ovarian): > 100 µM
TGI (OVCAR-5 ovarian): > 100 µM
GI50 (PC-3 prostate): > 100 µM
TGI (PC-3 prostate): > 100 µM
GI50 (SNB-75 CNS): 11.1 µM
TGI (SNB-75 CNS): 29.6 µM
GI50 (TK-10 renal): 34.4 µM
TGI (TK-10 renal): > 100 µM

COC(CC1(OC)OC(=O)C=C1N)OC (configuration not stated)
TGI (786-0 renal): > 100 µM
TGI (CCRF-CEM leukemia): > 100 µM
TGI (MALME-3M melanoma): > 100 µM
TGI (MOLT-4 leukemia): > 100 µM
TGI (NCI-H460 lung): > 100 µM
TGI (OVCAR-5 ovarian): > 100 µM
TGI (SNB-75 CNS): > 100 µM
TGI (TK-10 renal): > 100 µM

COC(=O)C1=C(\O)C[C@@]2(C)CC[C@@H](C(=O)OC)C2C/C=C\1C(=O)OC (some centres not stated)
TGI (786-0 renal): > 100 µM
TGI (CCRF-CEM leukemia): > 100 µM
TGI (MALME-3M melanoma): > 100 µM
TGI (MOLT-4 leukemia): > 100 µM
TGI (NCI-H460 lung): > 100 µM
TGI (OVCAR-5 ovarian): > 100 µM
TGI (SNB-75 CNS): > 100 µM
TGI (TK-10 renal): > 100 µM

N#CC1C(=O)NC(=O)C1=O (configuration not stated)
TGI (786-0 renal): > 100 µM
TGI (MALME-3M melanoma): > 100 µM
TGI (MOLT-4 leukemia): > 100 µM
TGI (NCI-H460 lung): > 100 µM
TGI (OVCAR-5 ovarian): > 100 µM
TGI (SNB-75 CNS): > 100 µM
TGI (TK-10 renal): > 100 µM

CCCCCCCCCCCC(=O)OC(COC(N)=O)COc1ccc(Cl)cc1 (configuration not stated)
TGI (786-0 renal): > 100 µM
TGI (CCRF-CEM leukemia): 35.9 µM
TGI (MALME-3M melanoma): 48.3 µM
TGI (MOLT-4 leukemia): 44.3 µM
TGI (NCI-H460 lung): 47.4 µM
TGI (SNB-75 CNS): > 100 µM
TGI (TK-10 renal): > 100 µM

O=C1N=C(Nc2nc(-c3csc(NC4=NC(=O)/C(=C\c5ccc(Cl)cc5)S4)n3)cs2)S/C1=C/c1ccc(Cl)cc1
GI50 (786-0 renal): 1.6 µM
TGI (786-0 renal): 12 µM
GI50 (MOLT-4 leukemia): 1.69 µM
TGI (MOLT-4 leukemia): > 50 µM
GI50 (NCI-H460 lung): 7.86 µM
TGI (NCI-H460 lung): > 50 µM
GI50 (NCI/ADR-RES ovarian): 18.1 µM
TGI (NCI/ADR-RES ovarian): > 50 µM
GI50 (OVCAR-5 ovarian): 25.8 µM
TGI (OVCAR-5 ovarian): > 50 µM
GI50 (PC-3 prostate): 8.78 µM
TGI (PC-3 prostate): 49 µM
GI50 (TK-10 renal): 8.44 µM
TGI (TK-10 renal): 25.6 µM

NC(=O)c1cc([N+](=O)[O-])cc([N+](=O)[O-])c1
TGI (786-0 renal): > 100 µM
TGI (CCRF-CEM leukemia): > 100 µM
TGI (MALME-3M melanoma): > 100 µM
TGI (MOLT-4 leukemia): > 100 µM
TGI (NCI-H460 lung): > 100 µM
TGI (OVCAR-5 ovarian): > 100 µM
TGI (SNB-75 CNS): > 100 µM
TGI (TK-10 renal): > 100 µM

N#Cc1c(N)c(C#N)c2c(c1-c1ccc(Cl)cc1)COc1ccc(F)cc1-2
GI50 (786-0 renal): 20 µM
TGI (786-0 renal): > 50 µM
GI50 (CCRF-CEM leukemia): > 50 µM
TGI (CCRF-CEM leukemia): > 50 µM
GI50 (MOLT-4 leukemia): > 50 µM
TGI (MOLT-4 leukemia): > 50 µM
GI50 (NCI-H460 lung): 18.7 µM
TGI (NCI-H460 lung): > 50 µM
GI50 (NCI/ADR-RES ovarian): 30.6 µM
TGI (NCI/ADR-RES ovarian): > 50 µM
GI50 (OVCAR-5 ovarian): 48.6 µM
TGI (OVCAR-5 ovarian): > 50 µM
GI50 (PC-3 prostate): > 50 µM
TGI (PC-3 prostate): > 50 µM
GI50 (SNB-75 CNS): 25.6 µM
TGI (SNB-75 CNS): > 50 µM
GI50 (TK-10 renal): 7.63 µM
TGI (TK-10 renal): 29.9 µM

O=C(/C=C/c1ccc(O)cc1)c1cc(Cl)ccc1O
TGI (786-0 renal): > 100 µM
TGI (CCRF-CEM leukemia): 44.8 µM
TGI (MALME-3M melanoma): > 100 µM
TGI (MOLT-4 leukemia): 55.8 µM
TGI (NCI-H460 lung): > 100 µM
TGI (SNB-75 CNS): > 100 µM
TGI (TK-10 renal): > 100 µM

ClCCCCOC1CCCCO1 (configuration not stated)
TGI (786-0 renal): > 100 µM
TGI (MALME-3M melanoma): > 100 µM
TGI (MOLT-4 leukemia): > 100 µM
TGI (NCI-H460 lung): > 100 µM
TGI (OVCAR-5 ovarian): > 100 µM
TGI (SNB-75 CNS): > 100 µM
TGI (TK-10 renal): > 100 µM

COc1cc(/C=C/c2cc(O)c(C/C=C(\C)CC/C=C(\C)CO)c(O)c2)cc2c1O[C@]1(C)CC[C@@H](O)C(C)(C)[C@H]1C2
GI50 (786-0 renal): 0.0172 µM and 0.13 µM
TGI (MOLT-4 leukemia): 0.0949 µM
TGI (NCI-H460 lung): > 100 µM
TGI (NCI/ADR-RES ovarian): > 100 µM
GI50 (OVCAR-5 ovarian): > 100 µM
TGI (OVCAR-5 ovarian): > 100 µM
TGI (PC-3 prostate): > 100 µM
GI50 (SNB-75 CNS): 55 µM
TGI (SNB-75 CNS): > 100 µM
TGI (TK-10 renal): > 93.8 µM
